From patent US20230257396A1, “MACROCYCLES AND THEIR USE” (BLOSSOMHILL THERAPEUTICS, INC., priority 2020, published 2023)

Assays:
Test in all cases: KINOMEscan kinase binding assay (Eurofins/DiscoveRx), % Ctrl
kinases [1] = biological target: T1, kinases (Homo sapiens, UniProt P35916)
T1 construct: purchased Eurofins/DiscoveRx; host or cells: E. coli BL21-derived host (T7 phage display) for most kinases; HEK-293 for the rest
How it was run: (§1)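 Competition binding: DNA- or phage-tagged kinases (T7 phage in E. coli BL21, or HEK-293-expressed) with immobilized biotinylated ligand beads and test compound, 1 h at room temperature. Bead-bound kinase eluted and quantified by qPCR; % Ctrl = (compound − positive control)/(negative control − positive control) ×100 at a single compound concentration.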

kinases [2] = biological target: T2, kinases (Homo sapiens, UniProt P00533, G719C)
T2 construct: purchased Eurofins/DiscoveRx; host or cells: E. coli BL21-derived host (T7 phage display) for most kinases; HEK-293 for the rest
How it was run: as §1

kinases [3] = biological target: T3, kinases (Homo sapiens, UniProt P36888, N841I)
T3 construct: purchased Eurofins/DiscoveRx; host or cells: E. coli BL21-derived host (T7 phage display) for most kinases; HEK-293 for the rest
T3 sequence (P36888 27-993 N841I): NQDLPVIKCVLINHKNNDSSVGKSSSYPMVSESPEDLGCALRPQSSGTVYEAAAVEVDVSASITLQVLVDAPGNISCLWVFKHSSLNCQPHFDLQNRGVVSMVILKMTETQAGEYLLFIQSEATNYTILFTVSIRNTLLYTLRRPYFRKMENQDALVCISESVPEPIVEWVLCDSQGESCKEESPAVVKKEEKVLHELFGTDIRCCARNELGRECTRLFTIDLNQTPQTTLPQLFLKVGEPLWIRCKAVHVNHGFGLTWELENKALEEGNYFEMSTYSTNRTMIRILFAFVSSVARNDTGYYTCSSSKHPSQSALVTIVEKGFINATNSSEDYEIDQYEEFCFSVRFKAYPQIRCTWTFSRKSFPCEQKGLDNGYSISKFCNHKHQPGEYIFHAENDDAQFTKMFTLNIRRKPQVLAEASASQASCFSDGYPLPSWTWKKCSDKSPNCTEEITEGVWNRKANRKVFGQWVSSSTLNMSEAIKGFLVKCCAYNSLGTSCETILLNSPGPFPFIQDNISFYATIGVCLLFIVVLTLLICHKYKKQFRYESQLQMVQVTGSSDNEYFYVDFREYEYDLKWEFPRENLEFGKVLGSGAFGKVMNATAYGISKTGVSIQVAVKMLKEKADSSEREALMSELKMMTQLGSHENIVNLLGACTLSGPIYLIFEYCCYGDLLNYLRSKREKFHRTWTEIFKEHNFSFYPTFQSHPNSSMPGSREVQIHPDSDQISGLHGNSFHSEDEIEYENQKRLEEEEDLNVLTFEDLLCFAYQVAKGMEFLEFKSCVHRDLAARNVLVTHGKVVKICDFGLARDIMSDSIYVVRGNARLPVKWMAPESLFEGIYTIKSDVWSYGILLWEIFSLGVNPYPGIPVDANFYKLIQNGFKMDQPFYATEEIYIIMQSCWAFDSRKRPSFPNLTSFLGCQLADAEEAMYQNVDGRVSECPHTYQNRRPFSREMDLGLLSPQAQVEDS
How it was run: as §1

kinases [4] = biological target: T4, kinases (Homo sapiens, UniProt P00519)
T4 construct: purchased Eurofins/DiscoveRx; host or cells: E. coli BL21-derived host (T7 phage display) for most kinases; HEK-293 for the rest
How it was run: as §1

kinases [5] = biological target: T5, kinases (Homo sapiens, UniProt P00533, L861Q)
T5 construct: purchased Eurofins/DiscoveRx; host or cells: E. coli BL21-derived host (T7 phage display) for most kinases; HEK-293 for the rest
How it was run: as §1

kinases [6] = biological target: T6, kinases (Homo sapiens, UniProt P00519, Y253F)
T6 construct: purchased Eurofins/DiscoveRx; host or cells: E. coli BL21-derived host (T7 phage display) for most kinases; HEK-293 for the rest
How it was run: as §1

[7] = 1 μM; ABL1(Y253F)-phosphorylated
[8] = 1 μM; target ABL1-nonphosphorylated
[9] = 1 μM; target ABL1-phosphorylated
[10] = 1 μM; target ABL1(Y253F)-phosphorylated

T1 sequence (P35916 25-1363): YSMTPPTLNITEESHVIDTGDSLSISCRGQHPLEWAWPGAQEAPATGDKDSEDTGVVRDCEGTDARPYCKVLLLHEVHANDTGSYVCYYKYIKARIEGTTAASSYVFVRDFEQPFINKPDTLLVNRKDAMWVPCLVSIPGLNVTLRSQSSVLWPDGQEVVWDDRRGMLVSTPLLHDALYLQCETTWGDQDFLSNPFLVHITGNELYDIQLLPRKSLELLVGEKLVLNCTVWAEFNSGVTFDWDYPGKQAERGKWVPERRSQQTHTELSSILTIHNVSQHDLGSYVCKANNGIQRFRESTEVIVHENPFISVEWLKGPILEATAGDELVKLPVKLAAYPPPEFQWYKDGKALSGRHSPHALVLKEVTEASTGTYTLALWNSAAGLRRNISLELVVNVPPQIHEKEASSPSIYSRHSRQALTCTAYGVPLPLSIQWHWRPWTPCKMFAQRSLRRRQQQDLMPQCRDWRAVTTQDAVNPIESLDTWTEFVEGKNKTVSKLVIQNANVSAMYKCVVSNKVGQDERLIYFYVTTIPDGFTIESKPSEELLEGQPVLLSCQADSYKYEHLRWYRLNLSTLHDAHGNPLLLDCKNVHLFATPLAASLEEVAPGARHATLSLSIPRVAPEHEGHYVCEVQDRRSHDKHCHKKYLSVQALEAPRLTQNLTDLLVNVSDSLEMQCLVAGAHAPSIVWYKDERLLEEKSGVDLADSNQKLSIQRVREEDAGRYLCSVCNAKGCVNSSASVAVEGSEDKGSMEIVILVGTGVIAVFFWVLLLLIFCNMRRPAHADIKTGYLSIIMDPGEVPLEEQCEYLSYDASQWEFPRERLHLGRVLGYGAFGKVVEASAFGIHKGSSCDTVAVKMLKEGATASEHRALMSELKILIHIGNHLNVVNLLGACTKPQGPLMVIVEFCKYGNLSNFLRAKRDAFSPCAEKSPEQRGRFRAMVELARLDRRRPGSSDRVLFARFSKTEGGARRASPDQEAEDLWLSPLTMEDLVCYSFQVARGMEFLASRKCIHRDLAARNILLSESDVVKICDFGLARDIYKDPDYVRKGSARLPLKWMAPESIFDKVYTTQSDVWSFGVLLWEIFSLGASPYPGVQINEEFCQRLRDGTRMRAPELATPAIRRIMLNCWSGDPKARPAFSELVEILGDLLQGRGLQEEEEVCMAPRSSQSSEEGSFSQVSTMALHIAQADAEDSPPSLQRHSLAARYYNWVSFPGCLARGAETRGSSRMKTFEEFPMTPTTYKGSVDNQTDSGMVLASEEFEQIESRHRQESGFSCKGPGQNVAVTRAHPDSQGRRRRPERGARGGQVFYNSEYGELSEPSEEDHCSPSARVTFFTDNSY

Row | Structure (SMILES) | % Ctrl, FLT4 (kinases [1]; 1 μM; FLT4) | % Ctrl, EGFR(G719C) (kinases [2]; 1 μM; EGFR(G719C)) | % Ctrl, FLT3(N841I) (kinases [3]; 1 μM; FLT3(N841I)) | % Ctrl, ABL1-nonphosphorylated (kinases [4]; 1 μM; ABL1-nonphosphorylated) | % Ctrl, ABL1-phosphorylated (kinases [4]; 1 μM; ABL1-phosphorylated) | % Ctrl, EGFR(L861Q) (kinases [5]; 1 μM; EGFR(L861Q)) | % Ctrl, ABL1(Y253F)-phosphorylated (kinases [6]; [7]) | other results
1 | Cc1cc2c([nH]1)/C=C1\C(=O)Nc3ccc(cc31)-c1cnn(C)c1CN(C)CCN(C)C2=O [Ex. 126, [3a(4)Z]-6,9,12,14-tetramethyl-9,10,11,12,13,14-hexahydro-1,17-(ethanediylidene)pyrazolo[4,3-m]dipyrrolo[3,2-f:3′,4′-i][1,4]diazacyclopentadecine-3,8(2H,5H)-dione] | 0 % Ctrl | 86 % Ctrl | 0 % Ctrl | 0 % Ctrl | 0.1 % Ctrl | 50 % Ctrl | 0.25 % Ctrl | 
2 | Cc1cc2c([nH]1)/C=C1\C(=O)Nc3ccc(cc31)-c1c(C)n[nH]c1CNCCN(C)C2=O [Ex. 127, [3a(4)Z]-6,9,16-trimethyl-9,10,11,12,13,14-hexahydro-1,17-(ethanediylidene)pyrazolo[4,3-m]dipyrrolo[3,2-f:3′,4′-i][1,4]diazacyclopentadecine-3,8(2H,5H)-dione] | 2.1 % Ctrl | 90 % Ctrl | 0.35 % Ctrl | 0.05 % Ctrl | 0 % Ctrl | 73 % Ctrl | 0 % Ctrl | 
3 | Cc1cc2c([nH]1)/C=C1\C(=O)Nc3ccc(cc31)OCCOCCNC2=O [Ex. 129, [16a(17)Z]-2-methyl-6,7,9,10-tetrahydro-1H-12,14-(ethanediylidene)dipyrrolo[3,2-i:3′,4′-l][1,4,7]dioxazacyclopentadecine-4,16(5H,15H)-dione] | 83 % Ctrl | 100 % Ctrl | 68 % Ctrl | 84 % Ctrl | 91 % Ctrl | 81 % Ctrl | 98 % Ctrl | 
4 | Cc1cc2c([nH]1)/C=C1\C(=O)Nc3ccc(cc31)-c1cnn(C)c1OCCCN(C)C2=O [Ex. 166, [3a(4)Z]-9,14-dimethyl-9,10,11,12-tetrahydro-14H-1,17-(ethanediylidene)pyrazolo[4,3-n]dipyrrolo[3,2-g:3′,4′-j][1,5]oxazacyclopentadecine-3,8(2H,5H)-dione] |  |  |  |  |  |  |  | % Ctrl, FLT4 (kinases [1]; 1 μM; target FLT4): 49 % Ctrl; % Ctrl, EGFR(G719C) (kinases [2]; 1 μM; target EGFR(G719C)): 98 % Ctrl; % Ctrl, FLT3(N841I) (kinases [3]; 1 μM; target FLT3(N841I)): 0 % Ctrl; % Ctrl, ABL1-nonphosphorylated (kinases [4]; [8]): 4.1 % Ctrl; % Ctrl, ABL1-phosphorylated (kinases [4]; [9]): 3.6 % Ctrl; % Ctrl, EGFR(L861Q) (kinases [5]; 1 μM; target EGFR(L861Q)): 99 % Ctrl; % Ctrl, ABL1(Y253F)-phosphorylated (kinases [6]; [10]): 11 % Ctrl
5 | Cc1cc2c([nH]1)/C=C1\C(=O)Nc3ccc(cc31)CN(C)C(=O)COCCNC2=O [Ex.111, [17a(18)Z]-2,11-dimethyl-6,7,11,12-tetrahydro-1H-13,15-(ethanediylidene)dipyrrolo[3,2-f:3′,4′-i][1,4,14]oxadiazacyclohexadecine-4,10,17(5H,9H,16H)-trione] | 74 % Ctrl | 73 % Ctrl | 14 % Ctrl | 71 % Ctrl | 59 % Ctrl | 64 % Ctrl | 58 % Ctrl | 
6 | Cc1cc2c([nH]1)/C=C1\C(=O)Nc3cnc(nc31)N(C)CCCOCCN(C)C2=O [Ex.71, [17a(18)Z]-2,5,12-trimethyl-6,7,9,10,11,12-hexahydro-1H-13,15-(azenometheno)dipyrrolo[3,2-f:3′,4′-i][1,4,11,13]oxatriazacyclohexadecine-4,17(5H,16H)-dione] | 95 % Ctrl | 71 % Ctrl | 75 % Ctrl | 90 % Ctrl | 93 % Ctrl | 80 % Ctrl | 91 % Ctrl | 
7 | Cc1cc2c([nH]1)/C=C1\C(=O)Nc3ccc(cc31)-c1cnn(C)c1CNCCN(C)C2=O [Ex. 125, [3a(4)Z]-6,9,14-trimethyl-9,10,11,12,13,14-hexahydro-1,17-(ethanediylidene)pyrazolo[4,3-m]dipyrrolo[3,2-f:3′,4′-i][1,4]diazacyclopentadecine-3,8(2H,5H)-dione] | 0.11 % Ctrl | 8 % Ctrl | 0 % Ctrl | 0 % Ctrl | 0 % Ctrl | 77 % Ctrl | 0 % Ctrl | 
8 | Cc1cc2c([nH]1)/C=C1\C(=O)Nc3cc(Cl)c(cc31)OCCO[C@@H](C(=O)N1CCN(C)CC1)CN(C)C2=O [Ex. 138, [7R,16a(17)Z]-19-chloro-2,5-dimethyl-7-(4-methylpipearazine-1-carbonyl)-6,7,9,10-tetrahydro-1H-12,14-(ethanediylidene)dipyrrolo[3,2-i:3′,4′-l][1,4,7]dioxazacyclopentadecine-4,16(5H,15H)-dione] |  |  |  |  |  |  |  | % Ctrl, FLT4 (kinases [1]; target FLT4; 1 μM): 97 % Ctrl; % Ctrl, EGFR(G719C) (kinases [2]; target EGFR(G719C); 1 μM): 100 % Ctrl; % Ctrl, FLT3(N841I) (kinases [3]; target FLT3(N841I); 1 μM): 68 % Ctrl; % Ctrl, ABL1-nonphosphorylated (kinases [4]; target ABL1-nonphosphorylated; 1 μM): 79 % Ctrl; % Ctrl, ABL1-phosphorylated (kinases [4]; target ABL1-phosphorylated; 1 μM): 100 % Ctrl; % Ctrl, EGFR(L861Q) (kinases [5]; target EGFR(L861Q); 1 μM): 100 % Ctrl; % Ctrl, ABL1(Y253F)-phosphorylated (kinases [6]; target ABL1(Y253F)-phosphorylated; 1 μM): 91 % Ctrl
9 | Cc1cc2c([nH]1)/C=C1\C(=O)Nc3cc(Cl)c(cc31)OCCO[C@@H](C(=O)NC1CNC1)CN(C)C2=O [Ex. 133, [7R,16a(17)Z]-N-(azetidin-3-yl)-19-chloro-2,5-dimethyl-4,16-dioxo-4,5,6,7,9,10,15,16-octahydro-1H-12,14-(ethanediylidene)dipyrrolo[3,2-i:3′,4′-l][1,4,7]dioxazacyclopentadecine-7-carboxamide] | 98 % Ctrl | 92 % Ctrl | 19 % Ctrl | 65 % Ctrl | 68 % Ctrl | 97 % Ctrl | 57 % Ctrl | 
10 | Cc1cc2c([nH]1)/C=C1\C(=O)Nc3ccc(cc31)-c1cnn(C)c1COCCN(C)C2=O [Ex. 124, [3a(4)Z]-6,9,14-trimethyl-10,11,13,14-tetrahydro-2H-1,17-(ethanediylidene)pyrazolo[4,3-m]dipyrrolo[3,2-f:3′,4′-i][1,4]oxazacyclopentadecine-3,8(5H,9H)-dione] | 0.15 % Ctrl | 87 % Ctrl | 0 % Ctrl | 0 % Ctrl | 0 % Ctrl | 81 % Ctrl | 0 % Ctrl | 
11 | CN1CCOc2cc3c(cc2Cl)NC(=O)/C3=C\c2[nH]ccc2C(=O)N(C)CC1 [Ex. 164, [16a(17)Z]-19-chloro-2,5,8-trimethyl-5,6,7,8,9,10-hexahydro-12,14-(ethanediylidene)dipyrrolo[3,2-i:3′,4′-l][1,4,7]oxadiazacyclopentadecine-4,16(1H,15H)-dione] |  |  |  |  |  |  |  | % Ctrl, FLT4 (kinases [1]; 1 μM; target FLT4): 0.2 % Ctrl; % Ctrl, EGFR(G719C) (kinases [2]; 1 μM; target EGFR(G719C)): 82 % Ctrl; % Ctrl, FLT3(N841I) (kinases [3]; 1 μM; target FLT3(N841I)): 0 % Ctrl; % Ctrl, ABL1-nonphosphorylated (kinases [4]; [8]): 0.1 % Ctrl; % Ctrl, ABL1-phosphorylated (kinases [4]; [9]): 0.1 % Ctrl; % Ctrl, EGFR(L861Q) (kinases [5]; 1 μM; target EGFR(L861Q)): 63 % Ctrl; % Ctrl, ABL1(Y253F)-phosphorylated (kinases [6]; [10]): 0.1 % Ctrl
12 | Cc1cc2c([nH]1)/C=C1\C(=O)Nc3cc(Cl)c(cc31)SCCOCCN(C)C2=O [Ex. 169, [16a(17)Z]-19-chloro-5-methyl-6,7,9,10-tetrahydro-1H-12,14-(ethanediylidene)dipyrrolo[3,4-g:2′,3′-j][1,4,13]oxathiazacyclopentadecine-4,16(5H,15H)-dione] |  |  |  |  |  |  |  | % Ctrl, FLT4 (kinases [1]; 1 μM; target FLT4): 0.1 % Ctrl; % Ctrl, EGFR(G719C) (kinases [2]; 1 μM; target EGFR(G719C)): 100 % Ctrl; % Ctrl, FLT3(N841I) (kinases [3]; 1 μM; target FLT3(N841I)): 0 % Ctrl; % Ctrl, ABL1-nonphosphorylated (kinases [4]; [8]): 0 % Ctrl; % Ctrl, ABL1-phosphorylated (kinases [4]; [9]): 0 % Ctrl; % Ctrl, EGFR(L861Q) (kinases [5]; 1 μM; target EGFR(L861Q)): 77 % Ctrl; % Ctrl, ABL1(Y253F)-phosphorylated (kinases [6]; [10]): 0.1 % Ctrl
